Legend:
Conditions in all cases: Hela microsomes 100 μg, 14C-acyl-CoA, NADH (FIG. 3)
mSCD1 = molecular target: T1, mSCD1 (Mus musculus, UniProt P13516); assay: Δ9-desaturase activity in microsomes of Hela cells over-expressing mSCD1; format: biochemical
T1 sequence (P13516 1-355): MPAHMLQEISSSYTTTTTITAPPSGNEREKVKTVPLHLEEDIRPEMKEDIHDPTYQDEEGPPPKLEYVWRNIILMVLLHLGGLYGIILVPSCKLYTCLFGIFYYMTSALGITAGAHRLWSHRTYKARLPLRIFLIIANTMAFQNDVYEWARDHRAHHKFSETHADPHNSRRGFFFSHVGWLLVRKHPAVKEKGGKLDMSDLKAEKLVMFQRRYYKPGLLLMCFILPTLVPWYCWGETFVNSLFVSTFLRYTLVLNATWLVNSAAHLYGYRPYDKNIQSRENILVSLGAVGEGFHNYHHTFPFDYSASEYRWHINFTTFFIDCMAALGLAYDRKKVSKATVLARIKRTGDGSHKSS
Method: (§1) HeLa cells were cultured at 37° C. in a humidified 5% CO2 atmosphere in Dulbecco's modified Eagle's medium supplemented with 10% (v/v) fetal bovine serum and penicillin/streptomycin. The cells were resuspended in cytomix buffer (120 mM KCl, 0.15 mM CaCl2, 25 mM Hepes/KOH, pH 7.6, 2 mM EGTA, 5 mM MgCl2), and 400 μl of suspension was transferred to a 0.4-cm electroporation cuvette (Invitrogen). 35 μg of pcDNA3 DNA harboring either human or mouse SCD constructs were transfected into Hela cells which have very low Δ9-desaturase activity. DNA was added to the cell suspension in the cuvette and mixed well. The mixture was then exposed to a single electric pulse of 300 V with a capacitance of 1000 microfarads using an Invitrogen pulse system. The cells were allowed to recover in culture medium at 37° C. (5% CO2 atmosphere) for 48 h before harvesting and performing SCD activity assays.
(§2) Δ9-desaturase activity: Microsomes were purified from Hela cells by differential centrifugation and resuspended in a 0.1 M potassium phosphate buffer (pH 6.8). Δ9-desaturase activity was assayed at 25° C. for 7 minutes with either [^14C] stearoyl-CoA or [^14C] palmito-CoA, 2 mM NADH, and 100 μg microsomal protein (Miyazaki, M. et al. (2001) J Biol Chem 276, 39455-39461).

mSCD2 = molecular target: T2, mSCD2 (Mus musculus, UniProt P13011); assay: Δ9-desaturase activity in microsomes of Hela cells over-expressing mSCD2; format: biochemical
T2 sequence (P13011 1-358): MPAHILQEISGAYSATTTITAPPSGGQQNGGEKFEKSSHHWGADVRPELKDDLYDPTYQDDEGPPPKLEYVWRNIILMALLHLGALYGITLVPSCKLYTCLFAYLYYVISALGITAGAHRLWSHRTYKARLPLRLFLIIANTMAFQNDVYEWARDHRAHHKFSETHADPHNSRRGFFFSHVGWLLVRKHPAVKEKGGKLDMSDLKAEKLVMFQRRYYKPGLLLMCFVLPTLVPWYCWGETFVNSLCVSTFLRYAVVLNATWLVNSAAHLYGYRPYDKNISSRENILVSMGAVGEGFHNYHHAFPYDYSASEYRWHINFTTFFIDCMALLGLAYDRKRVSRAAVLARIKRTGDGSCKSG
Method: as §1, §2

mSCD4 = assay: Δ9-desaturase activity in microsomes of Hela cells over-expressing mSCD4; format: biochemical, mouse
Method: as §1, §2

hSCD1 = molecular target: T3, hSCD1 (Homo sapiens, UniProt O00767); assay: Δ9-desaturase activity in microsomes of Hela cells over-expressing hSCD1; format: biochemical; design: Cloning of the full-length human and mouse SCD cDNAs: The full coding region of human SCDs; expressed in transfected cells
T3 sequence (O00767 1-359): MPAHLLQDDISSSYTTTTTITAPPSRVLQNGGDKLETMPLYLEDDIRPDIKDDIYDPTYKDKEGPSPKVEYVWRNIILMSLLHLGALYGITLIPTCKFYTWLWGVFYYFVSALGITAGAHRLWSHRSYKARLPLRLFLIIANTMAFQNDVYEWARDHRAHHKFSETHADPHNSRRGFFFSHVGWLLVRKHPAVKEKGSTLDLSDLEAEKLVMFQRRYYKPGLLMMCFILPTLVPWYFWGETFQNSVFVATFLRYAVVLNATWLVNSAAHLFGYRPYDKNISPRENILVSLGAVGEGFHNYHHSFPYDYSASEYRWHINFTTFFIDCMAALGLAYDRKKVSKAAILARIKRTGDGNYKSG
Method: as §1, §2

hSCD5 = molecular target: T4, hSCD5 (Homo sapiens, UniProt Q86SK9); assay: Δ9-desaturase activity in microsomes of Hela cells over-expressing hSCD5; format: biochemical; design: Cloning of the full-length human and mouse SCD cDNAs: The full coding region of human SCDs; expressed in transfected cells
T4 sequence (Q86SK9 1-330): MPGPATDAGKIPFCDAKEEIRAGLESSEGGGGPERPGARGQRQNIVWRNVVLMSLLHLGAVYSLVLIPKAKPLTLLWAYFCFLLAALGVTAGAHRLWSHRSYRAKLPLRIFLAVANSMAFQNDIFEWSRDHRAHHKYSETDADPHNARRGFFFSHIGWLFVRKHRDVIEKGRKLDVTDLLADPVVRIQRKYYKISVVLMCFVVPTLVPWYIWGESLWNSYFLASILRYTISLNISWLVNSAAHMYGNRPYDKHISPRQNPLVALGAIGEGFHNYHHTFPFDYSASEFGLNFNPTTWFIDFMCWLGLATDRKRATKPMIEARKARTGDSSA
Method: as §1, §2

## CCCCCCCCCCCCCCCCCC(=O)SCCNC(=O)CCNC(=O)[C@H](O)C(C)(C)COP(=O)(O)OP(=O)(O)OC[C@H]1O[C@@H](n2cnc3c(N)ncnc32)[C@H](O)[C@@H]1OP(=O)(O)O [18:0-CoA, stearoyl-CoA]
mSCD1
  Δ9-desaturase activity towards 18:0-CoA relative to 16:0-CoA: 2.2 fold
mSCD2
  Δ9-desaturase activity towards 18:0-CoA relative to 16:0-CoA: 1.6 fold
mSCD4
  Δ9-desaturase activity towards 18:0-CoA relative to 16:0-CoA: 2.0 fold
hSCD1
  Δ9-desaturase activity towards 18:0-CoA relative to 16:0-CoA: 2.2 fold
hSCD5
  utilization of 18:0-CoA relative to 16:0-CoA: 6 fold
